As a reminder, the IC50 is the concentration that gives 50% inhibition. In general, viability, T/C refers to the result in the treated group divided by that in the control group, in per cent.

This passage reports IC50 and viability, T/C results from PubChem BioAssay AID1963837 (Molecular Pharmacology Branch, DTP, NCI, 2024).

A value given as a limit tells only on which side of the number the result lay.
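Wherever viability, T/C is given: spheroids exposed to drugs for seven days before readout.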

The subject of one assay is 843126-344-R-J1-PDC complex spheroid viability. Kind of assay: Anticancer human tumor 843126-344-R-J1-PDC patient-derived melanoma cell line growth inhibition [POLQ]. As to conditions: curve of first compound; second compound 10 µM. A digest of the protocol:
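Patient-derived tumour cells were co-cultured with HUVEC and mesenchymal stem cells as multicellular spheroids at 37 °C. They were treated with POLQ inhibitors (novobiocin, ART-558, RP6685) alone or combined with other agents. Top concentrations were at or near clinical Cmax (otherwise 10 microM; SN-38 at 1 microM), decreasing in half-log steps.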
As for `O=C(Nc1ccc(O)c(NS(=O)(=O)c2ccc(F)cc2)c1)c1ccc(-c2ccccc2)cc1` + COC1C(OC(N)=O)C(O)C(Oc2ccc3c(O)c(NC(=O)c4ccc(O)c(CC=C(C)C)c4)c(=O)oc3c2C)OC1(C)C, the IC50 is > 10 µM.

For the molecule `COc1cc(C2c3cc4c(cc3C(OC3OC5COC(C)OC5C(O)C3O)C3COC(=O)C23)OCO4)cc(OC)c1O` (stereo unspecified) + Cc1cccc(N(C)C(=O)C2C(O)CCN2c2nc(C)cc(C(F)(F)F)c2C#N)c1, the IC50 turned out to be 3.78 µM.

For `COc1cccc2c1C(=O)c1c(O)c3c(c(O)c1C2=O)CC(O)(C(=O)CO)CC3OC1CC(N)C(O)C(C)O1` (stereo unspecified) + Cc1cccc(N(C)C(=O)C2C(O)CCN2c2nc(C)cc(C(F)(F)F)c2C#N)c1, the IC50 came to 0.152 µM.

Staying with this assay, now noted: second compound 0.0316 µM; first compound 0.0316 µM; stronger effect = lower value.
For the molecule `CC1COCCN1c1cc(C2(O)CC3CCC(C2)O3)c2cnn(-c3ccn[nH]3)c2n1` (stereo unspecified) + COC1C(OC(N)=O)C(O)C(Oc2ccc3c(O)c(NC(=O)c4ccc(O)c(CC=C(C)C)c4)c(=O)oc3c2C)OC1(C)C, the viability, T/C was 83.6%.

Regarding `O=C(Nc1ccc(O)c(NS(=O)(=O)c2ccc(F)cc2)c1)c1ccc(-c2ccccc2)cc1` + COC1C(OC(N)=O)C(O)C(Oc2ccc3c(O)c(NC(=O)c4ccc(O)c(CC=C(C)C)c4)c(=O)oc3c2C)OC1(C)C, the viability, T/C is 118%.

For `COc1cc(C2c3cc4c(cc3C(OC3OC5COC(C)OC5C(O)C3O)C3COC(=O)C23)OCO4)cc(OC)c1O` (stereo unspecified) + Cc1cccc(N(C)C(=O)C2C(O)CCN2c2nc(C)cc(C(F)(F)F)c2C#N)c1, the viability, T/C was 86.5%.

As to `COc1cccc2c1C(=O)c1c(O)c3c(c(O)c1C2=O)CC(O)(C(=O)CO)CC3OC1CC(N)C(O)C(C)O1` (stereo unspecified) + Cc1cccc(N(C)C(=O)C2C(O)CCN2c2nc(C)cc(C(F)(F)F)c2C#N)c1, the viability, T/C was 92.8%.

The same assay, now with this note: second compound 0.0316 µM; first compound 0.1 µM; stronger effect = lower value.
With `CC1COCCN1c1cc(C2(O)CC3CCC(C2)O3)c2cnn(-c3ccn[nH]3)c2n1` (stereo unspecified) + COC1C(OC(N)=O)C(O)C(Oc2ccc3c(O)c(NC(=O)c4ccc(O)c(CC=C(C)C)c4)c(=O)oc3c2C)OC1(C)C, the viability, T/C was 66.6%.

`O=C(Nc1ccc(O)c(NS(=O)(=O)c2ccc(F)cc2)c1)c1ccc(-c2ccccc2)cc1` + COC1C(OC(N)=O)C(O)C(Oc2ccc3c(O)c(NC(=O)c4ccc(O)c(CC=C(C)C)c4)c(=O)oc3c2C)OC1(C)C: the viability, T/C was 105%.

In the case of `COc1cc(C2c3cc4c(cc3C(OC3OC5COC(C)OC5C(O)C3O)C3COC(=O)C23)OCO4)cc(OC)c1O` (stereo unspecified) + Cc1cccc(N(C)C(=O)C2C(O)CCN2c2nc(C)cc(C(F)(F)F)c2C#N)c1, the viability, T/C is 81.5%.

For the molecule `COc1cccc2c1C(=O)c1c(O)c3c(c(O)c1C2=O)CC(O)(C(=O)CO)CC3OC1CC(N)C(O)C(C)O1` (stereo unspecified) + Cc1cccc(N(C)C(=O)C2C(O)CCN2c2nc(C)cc(C(F)(F)F)c2C#N)c1, the viability, T/C was 62.1%.

The assay is the same for the next values; noted with them: second compound 0.0316 µM; first compound 0.316 µM; stronger effect = lower value.
In the case of `CC1COCCN1c1cc(C2(O)CC3CCC(C2)O3)c2cnn(-c3ccn[nH]3)c2n1` (stereo unspecified) + COC1C(OC(N)=O)C(O)C(Oc2ccc3c(O)c(NC(=O)c4ccc(O)c(CC=C(C)C)c4)c(=O)oc3c2C)OC1(C)C, the viability, T/C was 53.6%.

As for `O=C(Nc1ccc(O)c(NS(=O)(=O)c2ccc(F)cc2)c1)c1ccc(-c2ccccc2)cc1` + COC1C(OC(N)=O)C(O)C(Oc2ccc3c(O)c(NC(=O)c4ccc(O)c(CC=C(C)C)c4)c(=O)oc3c2C)OC1(C)C, the viability, T/C was 100%.

Regarding `COc1cc(C2c3cc4c(cc3C(OC3OC5COC(C)OC5C(O)C3O)C3COC(=O)C23)OCO4)cc(OC)c1O` (stereo unspecified) + Cc1cccc(N(C)C(=O)C2C(O)CCN2c2nc(C)cc(C(F)(F)F)c2C#N)c1, the viability, T/C was 77.9%.

On to `COc1cccc2c1C(=O)c1c(O)c3c(c(O)c1C2=O)CC(O)(C(=O)CO)CC3OC1CC(N)C(O)C(C)O1` (stereo unspecified) + Cc1cccc(N(C)C(=O)C2C(O)CCN2c2nc(C)cc(C(F)(F)F)c2C#N)c1, for which the viability, T/C is 39.9%.

Staying with this assay, now noted: second compound 0.0316 µM; first compound 1 µM; stronger effect = lower value.
`CC1COCCN1c1cc(C2(O)CC3CCC(C2)O3)c2cnn(-c3ccn[nH]3)c2n1` (stereo unspecified) + COC1C(OC(N)=O)C(O)C(Oc2ccc3c(O)c(NC(=O)c4ccc(O)c(CC=C(C)C)c4)c(=O)oc3c2C)OC1(C)C: the viability, T/C was 38.9%.

`O=C(Nc1ccc(O)c(NS(=O)(=O)c2ccc(F)cc2)c1)c1ccc(-c2ccccc2)cc1` + COC1C(OC(N)=O)C(O)C(Oc2ccc3c(O)c(NC(=O)c4ccc(O)c(CC=C(C)C)c4)c(=O)oc3c2C)OC1(C)C: the viability, T/C is 119%.

For `COc1cc(C2c3cc4c(cc3C(OC3OC5COC(C)OC5C(O)C3O)C3COC(=O)C23)OCO4)cc(OC)c1O` (stereo unspecified) + Cc1cccc(N(C)C(=O)C2C(O)CCN2c2nc(C)cc(C(F)(F)F)c2C#N)c1, the viability, T/C is 92.3%.

Consider `COc1cccc2c1C(=O)c1c(O)c3c(c(O)c1C2=O)CC(O)(C(=O)CO)CC3OC1CC(N)C(O)C(C)O1` (stereo unspecified) + Cc1cccc(N(C)C(=O)C2C(O)CCN2c2nc(C)cc(C(F)(F)F)c2C#N)c1, for which the viability, T/C was 11%.

The assay is the same for the next values; noted with them: second compound 0.0316 µM; first compound 3.16 µM; stronger effect = lower value.
As for `CC1COCCN1c1cc(C2(O)CC3CCC(C2)O3)c2cnn(-c3ccn[nH]3)c2n1` (stereo unspecified) + COC1C(OC(N)=O)C(O)C(Oc2ccc3c(O)c(NC(=O)c4ccc(O)c(CC=C(C)C)c4)c(=O)oc3c2C)OC1(C)C, the viability, T/C is 22.7%.

As to `O=C(Nc1ccc(O)c(NS(=O)(=O)c2ccc(F)cc2)c1)c1ccc(-c2ccccc2)cc1` + COC1C(OC(N)=O)C(O)C(Oc2ccc3c(O)c(NC(=O)c4ccc(O)c(CC=C(C)C)c4)c(=O)oc3c2C)OC1(C)C, the viability, T/C is 99%.
